The source of these data is publication PMC3076313 (Bioorganic chemistry, 2010).

One experiment has as its target p300 HAT. The conditions noted are these: p300 HAT inhibitor; cited from earlier work.
The target of experiment [1] is T1, semisynthetic p300 HAT (wt p300 HAT) (Homo sapiens, UniProt Q09472).
T1 sequence (Q09472 1287-1663 limits assumed): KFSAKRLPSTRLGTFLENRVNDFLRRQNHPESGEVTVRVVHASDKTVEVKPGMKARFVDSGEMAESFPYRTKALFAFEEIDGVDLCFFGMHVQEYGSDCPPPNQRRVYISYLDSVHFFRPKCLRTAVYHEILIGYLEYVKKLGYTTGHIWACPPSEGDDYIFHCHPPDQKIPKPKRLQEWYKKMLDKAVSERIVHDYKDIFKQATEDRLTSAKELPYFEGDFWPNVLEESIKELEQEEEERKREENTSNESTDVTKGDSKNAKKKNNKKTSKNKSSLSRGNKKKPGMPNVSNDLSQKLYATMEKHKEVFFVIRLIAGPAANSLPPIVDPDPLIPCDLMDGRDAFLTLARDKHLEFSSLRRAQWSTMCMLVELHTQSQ
The conditions noted are these: 20 μM acetyl-CoA, 100 μM H4-15 peptide, 7 min pre-incubation, 30°C.

For experiment [2], the target named is T2, D1625R/D1628R double mutant of p300 HAT (Homo sapiens, UniProt Q09472, D1625R/D1628R).
T2 sequence (Q09472 1287-1663 D1625R/D1628R limits assumed): T1 sequence (Q09472 1287-1663 limits assumed) with D339R, D342R
Briefly: p300 HAT radioactive acetyltransferase inhibition assay, double mutant enzyme.

Structures are written as SMILES. Numbering of substitutions follows the chain as printed.

Turning to `CC(=O)N[C@@H](CCCCNC(=O)CSCCNC(=O)CCNC(=O)[C@H](O)C(C)(C)COP(=O)(O)OP(=O)(O)OC[C@H]1O[C@@H](n2cnc3c(N)ncnc32)[C@H](O)[C@@H]1OP(=O)(O)O)C(N)=O` [Lys-CoA], the Ki on p300 HAT is 20 nM. The IC50 in experiment [1] was 60 nM; in experiment [2] (D1625R, D1628R p300 HAT, 20 μM acetyl-CoA, 100 μM H4-15 peptide), 209 ± 15 nM. Besides, in experiment [2] (double mutant vs wt), the “fold weakening of IC50 with D1625R/D1628R p300 HAT compared with wt p300 HAT” value is given as 3.5 fold.
